Assays:
DRD3 = target: T1, DRD3 (Homo sapiens, UniProt P35462); assay: NanoBRET screen HiBiT-DRD3 in HEK293; type: binding
T1 construct: purchased Promega (in-house HiBiT-GPCR construct library, NanoBRET)
Experimental: (§1) Each tracer candidate was screened across the entire library of HiBiT-GPCR constructs using NanoBRET as the detection modality. As depicted in Figure 4A, the specificity of interactions was evaluated through decrease in BRET due to competitive displacement of a bound tracer by excess parental compound. Each tracer was analyzed for binding to each HiBiT-GPCR fusion in the absence and in the presence of competing parental compound. Briefly, HEK293 cells were transfected with HiBiT-GPCR constructs diluted into promoterless DNA to reduce expression and maximize translocation to the cell surface. Each tracer candidate was then screened at concentrations of 1 μM and 0.1 μM across cells expressing these fusions. Cells were treated for 1.5 h with tracer either alone or in the presence of 20 μM competing parental compound (i.e., control). BRET was measured upon addition of purified LgBiT and subsequent complementation with HiBiT genetically fused to a GPCR. The specificity of interactions was assessed through a decrease in BRET signal due to competitive displacement of the bound tracer. To further gauge the robustness of these interactions, the fold response over the control (i.e., BRETtracer/BRETcontrol) was calculated. We chose a 1.5-fold response, which translates to ≥7-fold signal over noise as the minimal threshold required to score an interaction as positive.
(§2) HiBiT-GPCR DNA constructs were diluted in 10 mM Tris pH 8 to a final concentration of 0.01 μg/μL, arrayed in 96-well plates and stored at −20 °C. For transfection, HEK293 cells were suspended in Opti-MEM (without phenol red) supplemented with 2% fetal bovine serum (Seradigm) and 100 units/mL penicillin–streptomycin (Gibco) at a final concentration of 220,000 cells/mL and dispensed into white 96-well plates at 90 μL/well. Subsequent transfections and screens were carried using an Agilent Bravo Automated Liquid Handling Platform. First, the 96-well HiBiT DNA arrays were diluted 25-fold in Opti-MEM (without serum or phenol red) to a final concentration of 0.0004 μg/μL and 20 μL of the diluted DNAs were transferred into new 96-well plates. Next, promoterless carrier DNA (1 μg/μL) was diluted 25-fold (0.04 μg/μL) and then dispensed into the diluted arrays at 20 μL/well. Following brief mixing, Viafect transfection reagent (Promega) diluted 16-fold into Opti-MEM was dispensed into the plates at 40 μL/well. After mixing by pipetting, plates were incubated for 10 min on the pipetting station deck. The DNA-transfection reagent complexes were then added to plates containing cells. To facilitate the screen, 10 μL of DNA-transfection reagent complexes were added in duplicates to the top 4 and bottom 4 rows, resulting in two identical 48-well arrays per plate. Plates with transfected cells were incubated for 18–20 h at 37 °C/5% CO2. A screen of each tracer across the entire library using two different concentrations requires duplicate plates of transfected cells. Depending on the number of tracers being screened, transfections can be scaled up using the same ratios. The next day, for each tracer, four 20× screening solutions in tracer dilution buffer (Promega) were prepared: two duplicates at final concentration of 20 μM and two duplicates at a final concentration of 2 μM. […] The four resulting solutions were diluted 4-fold in Opti-MEM without serum or phenol red to generate 5× solutions (5 µM and 0.5 µM tracer +/− 100 μM competing compound). To screen the library, a BioTek MultiFlo FX liquid dispenser was used to dispense 22.5 µL of tracer solution to the top 4 rows and 22.5 µL tracer + competing compound solution to the 4 bottom rows. Plates were briefly mixed on an orbital shaker and incubated for 1.5 h at room temperature. […] Plates were briefly mixed on an orbital shaker and incubated for 15 min to allow complementation.

CNR2 = target: T2, CNR2 (Homo sapiens, UniProt P34972); assay: NanoBRET screen HiBiT-CNR2 in HEK293; type: binding
T2 construct: purchased Promega (in-house HiBiT-GPCR construct library, NanoBRET)
T2 sequence (P34972 whole entry): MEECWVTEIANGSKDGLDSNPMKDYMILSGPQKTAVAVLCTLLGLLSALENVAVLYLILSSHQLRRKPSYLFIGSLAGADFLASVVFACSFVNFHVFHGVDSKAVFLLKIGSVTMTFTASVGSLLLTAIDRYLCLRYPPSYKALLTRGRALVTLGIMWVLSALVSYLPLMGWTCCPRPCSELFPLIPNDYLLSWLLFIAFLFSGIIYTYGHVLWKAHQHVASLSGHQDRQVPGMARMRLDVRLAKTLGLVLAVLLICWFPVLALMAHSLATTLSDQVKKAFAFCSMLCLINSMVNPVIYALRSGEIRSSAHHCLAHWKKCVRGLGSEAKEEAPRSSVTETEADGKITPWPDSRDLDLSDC
Experimental: as §1, §2

T1 sequence (P35462 whole entry): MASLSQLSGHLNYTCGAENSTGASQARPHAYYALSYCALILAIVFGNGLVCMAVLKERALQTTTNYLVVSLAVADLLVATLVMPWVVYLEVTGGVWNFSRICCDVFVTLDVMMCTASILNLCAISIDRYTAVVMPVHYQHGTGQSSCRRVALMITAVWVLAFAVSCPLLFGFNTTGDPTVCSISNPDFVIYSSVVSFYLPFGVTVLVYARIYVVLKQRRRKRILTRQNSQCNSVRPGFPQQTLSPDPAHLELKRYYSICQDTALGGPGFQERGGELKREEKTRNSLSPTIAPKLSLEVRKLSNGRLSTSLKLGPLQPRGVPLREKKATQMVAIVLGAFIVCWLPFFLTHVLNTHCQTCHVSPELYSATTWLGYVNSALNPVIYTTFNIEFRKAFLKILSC

| Structure (SMILES) | NanoBRET Fold Response (DRD3; DRD3, tracer 0.1μM) | NanoBRET Fold Response (DRD3; DRD3, tracer 1μM) | NanoBRET Fold Response (CNR2; CNR2, tracer 0.1μM) | NanoBRET Fold Response (CNR2; CNR2, tracer 1μM) | also measured |
| --- | --- | --- | --- | --- | --- |
| CCOC(=O)c1cc(C#N)c(N2CCC(C(=O)NS(=O)(=O)Cc3ccccc3/C=C/C(=O)NCCNC(=O)CCc3ccc4n3[B-](F)(F)[N+]3=C(c5ccc[nH]5)C=CC3=C4)CC2)nc1C [AZD1283-1-NB590] | – | – | – | – | NanoBRET Fold Response (DRD3; DRD3, 0.1μM): 0.99; NanoBRET Fold Response (DRD3; DRD3, 1μM): 1.01; NanoBRET Fold Response (CNR2; CNR2, 0.1μM): 1.04; NanoBRET Fold Response (CNR2; CNR2, 1μM): 0.91 |
| N#CN/C(=N\CCNC(=O)c1ccc(N)cc1)NCCCOc1cccc(CN2CCCCC2)c1 [Aminopotentidine (unmodified)] | – | – | – | – | NanoBRET Fold Response (DRD3; DRD3, other tracers/Aminopotentidine (unmodified), 0.1μM): 1.16; NanoBRET Fold Response (DRD3; DRD3, other tracers/Aminopotentidine (unmodified), 1μM): 1.64 |
| N#CN=C(NCCCOc1cccc(CN2CCCCC2)c1)NCCNC(=O)CCOCCOCCOCCOCCNC(=O)CCc1ccc2n1[B-](F)(F)[N+]1=C(c3ccc[nH]3)C=CC1=C2 [Aminopotentidine-2-NB590] | 1.25 | 1.17 | 1.00 | 1.16 | – |
| CN(C)CCC=C1c2ccccc2CCc2ccc(C(=O)NCCNC(=O)CCOCCOCCOCCOCCNC(=O)CCc3ccc4n3[B-](F)(F)[N+]3=C(c5ccc[nH]5)C=CC3=C4)cc21 [Amitriptyline-a-2-NB590] | – | – | – | – | NanoBRET Fold Response (DRD3; tracer at 0.1μM): 1.13; NanoBRET Fold Response (DRD3; tracer at 1μM): 1.37 |
| CN(C)CCC=C1c2ccccc2CCc2ccc(C(=O)NCCNC(=O)CCOCCOCCOCCOCCNC(=O)CCc3ccc4n3[B-](F)(F)[N+]3=C(c5ccc[nH]5)C=CC3=C4)cc21 [Amitriptyline-b-2-NB590] | – | – | 0.96 | 1.05 | NanoBRET Fold Response (DRD3; tracer at 0.1μM, listed as amitriptyline-b-2-NB590): 1.68; NanoBRET Fold Response (DRD3; tracer at 1μM, listed as amitriptyline-b-2-NB590): 1.25 |
| CN(CCC=C1c2ccccc2CCc2ccccc21)C(=O)CCOCCOCCOCCOCCNC(=O)CCc1ccc2n1[B-](F)(F)[N+]1=C(c3ccc[nH]3)C=CC1=C2 [Amitriptyline-e-2-NB590] | – | – | – | – | NanoBRET Fold Response (DRD3; tracer at 1μM): 1.24 |
| COc1ccc2c(n1)c(CCNC(C)=O)cn2CCNC(=O)CCc1ccc2n1[B-](F)(F)[N+]1=C(c3ccc[nH]3)C=CC1=C2 [Azamelatonin-1-NB590] | – | – | – | – | NanoBRET Fold Response (DRD3; 0.1μM tracer): 1.14; NanoBRET Fold Response (DRD3; 1μM tracer): 1.27; NanoBRET Fold Response (CNR2; 0.1μM tracer): 0.98; NanoBRET Fold Response (CNR2; 1μM tracer): 1.01 |
| COc1ccc2[nH]c(-c3ccc(CNC(=O)CCOCCOCCOCCOCCNC(=O)CCc4ccc5n4[B-](F)(F)[N+]4=C(c6ccc[nH]6)C=CC4=C5)cc3)c(CCNC(C)=O)c2n1 [AzomelatoninICO9-2-NB590] | – | – | – | – | NanoBRET Fold Response (DRD3; 0.1μM tracer): 0.93; NanoBRET Fold Response (DRD3; 1μM tracer): 1.05; NanoBRET Fold Response (CNR2; 0.1μM tracer): 0.97; NanoBRET Fold Response (CNR2; 1μM tracer): 1.06 |
| O=C(CCOCCOCCOCCOCCNC(=O)CCc1ccc2n1[B-](F)(F)[N+]1=C(c3ccc[nH]3)C=CC1=C2)NCCCN1CCN(C2=Nc3cc(Cl)ccc3Nc3ccccc32)CC1 [Clozapine-a-2-NB590] | – | – | – | – | NanoBRET Fold Response (DRD3; DRD3, 0.1μM tracer): 2.22; NanoBRET Fold Response (DRD3; DRD3, 1μM tracer): 2.49; NanoBRET Fold Response (CNR2; CNR2, 0.1μM tracer): 1.06; NanoBRET Fold Response (CNR2; CNR2, 1μM tracer): 1.19 |
| CN1CCN(C2=Nc3cc(Cl)ccc3Nc3ccc(CNC(=O)CCOCCOCCOCCOCCNC(=O)CCc4ccc5n4[B-](F)(F)[N+]4=C(c6ccc[nH]6)C=CC4=C5)cc32)CC1 [Clozapine-b-2-NB590] | – | – | – | – | NanoBRET Fold Response (DRD3; DRD3, 0.1μM tracer): 1.54; NanoBRET Fold Response (DRD3; DRD3, 1μM tracer): 2.63; NanoBRET Fold Response (CNR2; CNR2, 0.1μM tracer): 1.05 |
| CN1CCN(C2=Nc3cc(Cl)ccc3N(CC(=O)NCCOCCOCCOCCOCCNC(=O)CCc3ccc4n3[B-](F)(F)[N+]3=C(c5ccc[nH]5)C=CC3=C4)c3ccccc32)CC1 [Clozapine-c-2-NB590] | – | – | – | – | NanoBRET Fold Response (DRD3; DRD3, 0.1μM tracer): 0.96; NanoBRET Fold Response (DRD3; DRD3, 1μM tracer): 0.76; NanoBRET Fold Response (CNR2; CNR2, 0.1μM tracer): 0.96; NanoBRET Fold Response (CNR2; CNR2, 1μM tracer): 1.13 |
| O=C(CCOCCOCCOCCOCCNC(=O)CCc1ccc2n1[B-](F)(F)[N+]1=C(c3ccc[nH]3)C=CC1=C2)NCCCN1CCN(C2=Nc3ccccc3Oc3ccc(Cl)cc32)CC1 [Loxapine-a-2-NB590] | – | – | 0.33 | 1.25 | – |
| COc1ccccc1N1CCN(CCCCN2C(=O)c3ccc(CNC(=O)CCOCCOCCOCCOCCNC(=O)CCc4ccc5n4[B-](F)(F)[N+]4=C(c6ccc[nH]6)C=CC4=C5)cc3C2=O)CC1 [NAN-190-2-NB590] | 2.36 | 1.69 | 0.81 | – | – |
| COc1ccccc1N1CCN(CCCCN2C(=O)c3ccc(CNC(=O)CCOCCNC(=O)c4ccc(CNC(=O)CCc5ccc6n5[B-](F)(F)[N+]5=C(c7ccc[nH]7)C=CC5=C6)cc4)cc3C2=O)CC1 [NAN-190-3-NB590] | 2.25 | 1.52 | 1.09 | 1.15 | – |
| O=C(CCc1ccc2n1[B-](F)(F)[N+]1=C(c3ccc[nH]3)C=CC1=C2)NCc1ccc(C(=O)NCCOCCC(=O)N[C@@H]2CC[C@@]3(O)[C@H]4Cc5ccc(O)c6c5[C@@]3(CCN4CC3CC3)[C@H]2O6)cc1 [Naltrexone-3-NB590] | 0.79 | 1.37 | 0.92 | 0.91 | – |
| Cc1cc2c(s1)Nc1ccccc1N=C2N1CCN(CCCNC(=O)CCOCCOCCOCCOCCNC(=O)CCc2ccc3n2[B-](F)(F)[N+]2=C(c4ccc[nH]4)C=CC2=C3)CC1 [Olanzapine-a-2-NB590] | 1.74 | 2.07 | 0.23 | 1.06 | – |
| O=C(CCc1ccc2n1[B-](F)(F)[N+]1=C(c3ccc[nH]3)C=CC1=C2)NCc1ccc(C(=O)NCCOCCOCCNCC(O)COc2cccc3ccccc23)cc1 (centres unmarked) [Propranolol-3-NB590] | – | – | – | – | NanoBRET Fold Response (DRD3; DRD3, 0.1μM): 1.05; NanoBRET Fold Response (DRD3; DRD3, 1μM): 1.30; NanoBRET Fold Response (CNR2; CNR2, 0.1μM): 0.95; NanoBRET Fold Response (CNR2; CNR2, 1μM): 1.01 |
| O=C(CCc1ccc2n1[B-](F)(F)[N+]1=C(c3ccc[nH]3)C=CC1=C2)NCCOCCOCCNC(=O)OCCOCCN1CCN(C2=Nc3ccccc3Sc3ccccc32)CC1 [Quetiapine-a-2-NB590] | 1.56 | 1.98 | 1.07 | 1.29 | – |
| Cc1nc2n(c(=O)c1CCN1CCC(c3noc4cc(F)ccc34)CC1)CCCC2OC(=O)NCCOCCOCCOCCOCCNC(=O)CCc1ccc2n1[B-](F)(F)[N+]1=C(c3ccc[nH]3)C=CC1=C2 (centres unmarked) [Risperidone-2-NB590] | – | – | 1.04 | 1.12 | – |
| CC(C)N(CC[C@H](c1ccccc1)c1cc(CCNC(=O)CCOCCOCCOCCOCCNC(=O)CCc2ccc3n2[B-](F)(F)[N+]2=C(c4ccc[nH]4)C=CC2=C3)ccc1O)C(C)C [Tolterodine-2-NB590] | 0.97 | 0.98 | 0.94 | 1.11 | – |
| CC(C)N(CC[C@H](c1ccccc1)c1cc(CCNC(=O)c2ccc(CNC(=O)CCc3ccc4n3[B-](F)(F)[N+]3=C(c5ccc[nH]5)C=CC3=C4)cc2)ccc1O)C(C)C [Tolterodine-BZ-NB590] | 0.91 | 1.25 | – | 0.25 | – |
| CCCn1c(=O)c2[nH]c(-c3ccc(OCC(=O)NCCNC(=O)CCOCCNC(=O)c4ccc(CNC(=O)CCc5ccc6n5[B-](F)(F)[N+]5=C(c7ccc[nH]7)C=CC5=C6)cc4)cc3)nc2n(CCC)c1=O [XAC-3-NB590] | 1.23 | 0.81 | 1.04 | 1.09 | – |

From PMC8151276, “An Integrated Approach toward NanoBRET Tracers for Analysis of GPCR Ligand Engagement” (Molecules, 2021)
